# Reference: patent US20100081679A1, “DIAMINOPYRIMIDINES AS FUNGICIDES” (Bayer CropScience AG, priority 2007, published 2010)
# Marks after values point to notes of the source that are not given here.
# Assay: logP determination via retention times, calibrated with unbranched alkan-2-ones
# Assay type: physicochemical
# Details: HPLC on reversed-phase C 18, EEC Directive 79/831 Annex V.A8; method *: 40° C., 0.1% aqueous formic acid and acetonitrile, linear gradient 10% to 95% acetonitrile
row,SMILES,logP
1,COC(=O)Nc1cccc(Nc2ncc(Cl)c(NCC3CC3)n2)c1 [compound 515],1.66*
2,COC(=O)Nc1ccc(Nc2ncc(Cl)c(NC3CC3)n2)c(F)c1 [compound 530],1.56*
3,CC(=O)Nc1ccc(Nc2ncc(Cl)c(NCC3CC3)n2)cc1Cl [compound 505],1.68*
4,CCC(=O)Nc1cc(Nc2ncc(Br)c(NCC3CC3)n2)ccc1O [compound 494],1.97*
5,CCOC(=O)Cc1ccc(Nc2ncc(Br)c(NCC3CC3)n2)cc1 [compound 486],2.18*
6,CN(C)C(=O)c1ccc(Nc2ncc(Cl)c(NCC3CC3)n2)cc1 [compound 509],1.59*
7,CN1CC(=O)N(c2ccc(Nc3ncc(Cl)c(NCC4CC4)n3)cc2)C1=O [compound 523],1.53*

# Same assay, conditions: HPLC on reversed-phase C 18, method **: 43° C.; 0.1% aqueous phosphoric acid and acetonitrile; linear gradient 10% to 95% acetonitrile
row,SMILES,logP
1,CN(c1nc(Nc2ccccc2)ncc1Br)C1CC1 [compound 928],1.7**
2,CN(c1nc(Nc2ccccc2)ncc1Cl)C1CC1 [compound 734],2.7**

# Same assay, conditions: HPLC on reversed-phase C18, method **: 43° C.; mobile phase 0.1% aqueous phosphoric acid and acetonitrile; linear gradient 10% to 95% acetonitrile
row,SMILES,logP
1,O=S(=O)(c1ccc(Nc2ncc(Cl)c(NC3CC3)n2)cc1)N1CCCC1 [compound 307],2.52**

# Same assay, conditions: HPLC on reversed-phase C18, method *: 40° C., 0.1% aqueous formic acid and acetonitrile, linear gradient 10% to 95% acetonitrile
row,SMILES,logP
1,O=C(Nc1cccc(Nc2ncc(Cl)c(NC3CC3)n2)c1)c1ccco1 [Example 99],1.62*
2,O=C1C=CC(=O)N1c1ccc(Nc2ncc(Cl)c(NC3CC3)n2)cc1 [compound 156],1.58*
3,Oc1ccc(Nc2ncc(Cl)c(NC3CC3)n2)cc1F [compound 105],1.25*

# Further lines, results first:
row,logP,SMILES
1,1.75*,CC(=O)c1cc(Nc2ncc(Br)c(NC3CC3)n2)ccc1O [compound 763]
2,2.53*,Fc1cccc(Nc2ncc(Cl)c(NC3CC3)n2)c1F [compound 946]
3,2.43*,N#Cc1ccc(Nc2ncc(Br)c(NC3CC3)n2)cc1 [compound 744]
4,1.52*,C/C(=N/O)c1cccc(Nc2ncc(Cl)c(NC3CC3)n2)c1 [compound 736]
5,2.37*,CO/N=C(\C)c1cccc(Nc2ncc(Cl)c(NC3CC3)n2)c1 [compound 732]
6,2.18*,CSc1ccccc1Nc1ncc(Cl)c(NC2CC2)n1 [compound 880]
7,3.46*,Clc1ccc(Nc2ncc(Cl)c(NC3CC3)n2)cc1Cl [compound 941]
8,4.13*,FC(F)(F)Oc1ccc(Nc2ncc(Br)c(NC3CC3)n2)cc1Cl [compound 753]
9,2.37*,C=CCOc1cccc(Nc2ncc(Cl)c(NC3CC3)n2)c1 [compound 715]
10,1.66*,Brc1cnc(Nc2ccc3c(c2)OCO3)nc1NC1CC1 [compound 752]
11,3.14*,FC(F)C(F)(F)Oc1ccccc1Nc1ncc(Cl)c(NC2CC2)n1 [compound 896]
12,3.72*,FC(F)(F)Sc1ccccc1Nc1ncc(Cl)c(NC2CC2)n1 [compound 944]
13,1.73*,COc1ccc(Nc2ncc(Cl)c(NCC3CC3)n2)cc1 [compound 669]
14,2.26*,N#Cc1cccc(Nc2ncc(Br)c(NC3CC3)n2)c1 [compound 741]
15,2.6*,Clc1ccccc1Nc1ncc(Cl)c(NC2CC2)n1 [compound 940]
16,1.48*,O=C1CCCN1c1cccc(Nc2ncc(C(F)F)c(NCC3CC3)n2)c1 [compound 774]
17,1.47*,O=C1CCCCN1c1cccc(Nc2ncc(Cl)c(NC3CC3)n2)c1 [compound 713]
18,1.85*,CCC(=O)Nc1cc(Nc2ncc(Br)c(NC3CC3)n2)ccc1O [compound 767]

# Same assay, conditions: HPLC on reversed-phase C18, method *: 40° C.; mobile phase 0.1% aqueous formic acid and acetonitrile; linear gradient 10% to 95% acetonitrile
row,SMILES,logP
1,Clc1cnc(Nc2ccc(-c3cscn3)cc2)nc1NC1CC1 [compound 286],1.9*
2,Clc1cnc(Nc2ccc(OC3CCCC3)cc2)nc1NC1CC1 [compound 299],2.48*
3,O=C1CCCN1c1cccc(Nc2ncc(Cl)c(NC3(c4ccccc4Cl)CC3)n2)c1 [compound 323],2.95*
4,CCC(=O)c1cccc(Nc2ncc(Br)c(NC3CC3)n2)c1 [compound 305],2.32*
5,CC(=O)c1ccc(Nc2ncc(Br)c(NC3CC3)n2)cc1 [compound 357],2.09*
6,CC(C)c1cccc(Nc2ncc(Br)c(NC3CC3)n2)c1 [compound 363],2.8*
7,CN(C)S(=O)(=O)c1ccc(Nc2ncc(Br)c(NC3CC3)n2)cc1 [compound 346],2.33*

# Same assay, conditions: HPLC on reversed-phase C18 column (EEC Directive 79/831 Annex V.A8); method *: 40° C.; 0.1% aqueous formic acid and acetonitrile; linear gradient 10% to 95% acetonitrile
row,SMILES,logP
1,COc1ccc(Nc2ncc(Br)c(NCC3CC3)n2)cn1 [compound 191],1.63*
2,Brc1cnc(Nc2ccc(-c3nccs3)cc2)nc1NC1CC1 [compound 251],2.49*

# Same assay, conditions: HPLC reversed-phase C 18, EEC Directive 79/831 Annex V.A8; method **: 43° C., 0.1% aqueous phosphoric acid and acetonitrile, linear gradient 10% to 95% acetonitrile
row,SMILES,logP
1,Cc1nc(Nc2cccc(N3CCCC3=O)c2)nc(NC2CC2)c1Cl [compound 838],1.47**

# Same assay, conditions: HPLC reversed-phase C 18, EEC Directive 79/831 Annex V.A8; method *: 40° C., 0.1% aqueous formic acid and acetonitrile, linear gradient 10% to 95% acetonitrile
row,SMILES,logP
1,O=C(c1cccc(Nc2ncc(Cl)c(NC3CC3)n2)c1)N1CCCC1 [compound 848],1.57*
2,CC(=O)Cc1ccc(Nc2ncc(Cl)c(NC3CC3)n2)cc1 [compound 851],1.48*
3,CC(=O)CCc1cccc(Nc2ncc(Cl)c(NC3CC3)n2)c1 [compound 841],1.72*
4,COCc1cccc(Nc2ncc(I)c(NC3CC3)n2)c1 [compound 847],1.86*
5,O=C(O)c1cccc(Nc2ncc(Cl)c(NC3CC3)n2)c1 [compound 785],1.32*
6,CSC(C)c1cccc(Nc2ncc(Cl)c(NC3CC3)n2)c1 (stereo not shown) [compound 807],2.52*
7,CC(C)(C)c1ccc(Nc2ncc(Cl)c(NC3CC3)n2)cc1 [compound 829],2.92*

# Same assay, conditions: method **: HPLC reversed-phase C 18, 43° C., 0.1% aqueous phosphoric acid and acetonitrile, linear gradient 10% to 95% acetonitrile
row,SMILES,logP
1,FC(F)(F)c1cnc(Nc2ccccc2)nc1NC1CC1 [Example 93],2.62**
2,NS(=O)(=O)c1cccc(Nc2ncc(Cl)c(NCC3CC3)n2)c1 [Example 16],1.51**
3,Brc1cnc(Nc2ccccc2)nc1NC1CC1 [Example 30],1.8**
4,O=C1CCCN1c1cc(Nc2ncc(Cl)c(NC3CC3)n2)ccc1Cl [compound 368],1.9**

# Same assay, conditions: method **: HPLC reversed-phase C 18, temperature 43° C.; mobile phase 0.1% aqueous phosphoric acid and acetonitrile; linear gradient 10% to 95% acetonitrile
row,SMILES,logP
1,COc1ccc(Nc2ncc(C(F)(F)F)c(NC3CC3)n2)cc1 [compound 641],2.41**
2,CSc1ccc(Nc2ncc(C(F)(F)F)c(NC3CC3)n2)cc1 [compound 653],3.35**

# Same assay, conditions: method **: HPLC, reversed-phase C 18, 43° C., mobile phase 0.1% aqueous phosphoric acid and acetonitrile, linear gradient from 10% to 95% acetonitrile
row,SMILES,logP
1,CC1(C)CC1Nc1nc(Nc2cccc(N3CCOC3=O)c2)ncc1Cl (stereo not shown) [compound 1035],1.93**

# Same assay, conditions: method *: HPLC reversed-phase C18, 40° C., 0.1% aqueous formic acid and acetonitrile, linear gradient 10% to 95% acetonitrile
row,SMILES,logP
1,Ic1cnc(Nc2ccccc2)nc1NC1CC1 [compound 364],1.82*
2,COc1ccc(Nc2ncc(Cl)c(NC3CC3)n2)cn1 [compound 92],1.34*
3,CC(C)CSc1cccc(Nc2ncc(Cl)c(NC3CC3)n2)c1 [compound 435],3.75*
4,C=CCNC(=O)c1ccc(Nc2ncc(Br)c(NCC3CC3)n2)cc1 [compound 425],1.9*
5,CCCNS(=O)(=O)Cc1ccc(Nc2ncc(Cl)c(NC3CC3)n2)cc1 [compound 371],1.79*
6,Brc1cnc(Nc2ccc3c(c2)OCO3)nc1NCC1CC1 [compound 418],1.83*

# Same assay, conditions: method *: HPLC reversed-phase C 18, temperature 40° C.; mobile phase 0.1% aqueous formic acid and acetonitrile; linear gradient 10% to 95% acetonitrile
row,SMILES,logP
1,CC(C)(C)C(=O)Nc1cccc(Nc2ncc(C(F)(F)F)c(NC3CC3)n2)c1 [compound 650],2.6*
2,COc1ccc(Nc2ncc(C(F)(F)F)c(NC3CC3)n2)cc1 [compound 641],2.21*;
3,CSc1ccc(Nc2ncc(C(F)(F)F)c(NC3CC3)n2)cc1 [compound 653],3.1*;
4,COC(c1cccc(Nc2ncc(C(F)(F)F)c(NC3CC3)n2)c1)C(F)(F)F (stereo not shown) [compound 624],3.74*
5,COc1cc(Nc2ncc(C(F)(F)F)c(NC3CC3)n2)ccc1NC(C)=O [compound 639],1.85*

# Same assay, conditions: method *: HPLC, reversed-phase C 18, 40° C., mobile phase 0.1% aqueous formic acid and acetonitrile, linear gradient from 10% to 95% acetonitrile
row,SMILES,logP
1,O=C(c1cccc(Nc2ncc(Cl)c(NC3CC3)n2)c1)N1CCC1 [compound 1063],1.43*
2,CC(=O)Nc1cc(Nc2ncc(Cl)c(NC3CC3)n2)ccc1C [compound 982],1.34*
3,CC1(C)CC1Nc1nc(Nc2cccc(N3CCOC3=O)c2)ncc1Cl (stereo not shown) [compound 1035],1.93*;
4,CCCCOc1cc(Nc2ncc(Cl)c(NC3CC3)n2)ccc1C [compound 991],3.13*
5,CCSC(C)c1cccc(Nc2ncc(C(F)(F)F)c(NCC3CC3)n2)c1 (stereo not shown) [compound 988],4.37*
6,COCc1cc(Nc2ncc(Cl)c(NC3CC3)n2)ccc1OC [compound 1050],1.55*
7,CCC(CC)c1ccc(Nc2ncc(C(F)(F)F)c(NC3CC3)n2)cc1 [compound 1032],4.92*

# Same assay, conditions: pH 2.3; read-out: logP (pH2.3)
row,SMILES,chromatographic logP
1,"Clc1cnc(Nc2ccccc2)nc1Cl [4,5-Dichloro-N-phenylpyrimidine-2-amine]",3.52
2,FC(F)(F)c1cnc(Cl)nc1NC1CC1 [2-chloro-N-cyclopropyl-5-trifluoromethylpyrimidine-4-amine],2.39
3,"NS(=O)(=O)c1cccc(Nc2ncc(Cl)c(NC3CC3)n2)c1 [Example 15, 3-{[5-Chloro-4-(cyclopropylamino)pyrimidin-2-yl]amino}benzenesulphonamide]",1.37
4,"CC(C)NC(=O)c1ccc(Nc2ncc(Cl)c(NC3CC3)n2)cc1 [Example 43, 4-{[5-Chloro-4-(cyclopropylamino)pyrimidin-2-yl]amino}-N-isopropylbenzamide]",1.73

# Same assay, conditions: reversed-phase C18 HPLC column; method **: HPLC reversed-phase C 18, 43° C., 0.1% aqueous phosphoric acid and acetonitrile, linear gradient 10% to 95% acetonitrile; read-out: logP
row,SMILES,chromatographic logP
1,"NS(=O)(=O)c1cccc(Nc2ncc(Cl)c(NC3CC3)n2)c1 [Example 15, 3-{[5-Chloro-4-(cyclopropylamino)pyrimidin-2-yl]amino}benzenesulphonamide]",1.37
2,"CC(C)NC(=O)c1ccc(Nc2ncc(Cl)c(NC3CC3)n2)cc1 [Example 43, 4-{[5-Chloro-4-(cyclopropylamino)pyrimidin-2-yl]amino}-N-isopropylbenzamide]",1.73
